# Values of other authors as cited in patent US11166974B2, “Ophthalmic solution comprising Diquafosol” (Santen Pharmaceutical Co., Ltd., priority 2012, dated 2021).
# Test system: corneal epithelium disorder of dry eye patients
# Conditions: instillation of an ophthalmic solution; NPD 1
compound,measurement,value
O=c1ccn([C@@H]2O[C@H](COP(=O)([O-])OP(=O)([O-])OP(=O)([O-])OP(=O)([O-])OC[C@H]3O[C@@H](n4ccc(=O)[nH]c4=O)[C@H](O)[C@@H]3O)[C@@H](O)[C@H]2O)c(=O)[nH]1.[Na+].[Na+].[Na+].[Na+] [diquafosol tetrasodium salt],corneal epithelium disorder of dry eye patients,improved corneal epithelium disorder
